Reference: article PMC6001375, “CLERK is a novel receptor kinase required for sensing of root-active CLE peptides in Arabidopsis” (Development (Cambridge, England), 2018)

Legend:
[1] = test system: root meristem protophloem; test: Protophloem development / CVP2::NLS-VENUS marker in root meristem; assay type: in vivo, Arabidopsis thaliana; conditions: clerk mutant roots, CLE26 treatment; n=18-30 (Fig. 5D)
Excerpt: Fig. 5. CLERK prevents premature expression of a protophloem marker. (A) Schematic presentation of the protophloem sieve element lineage in the Arabidopsis root meristem. Red asterisk, pericycle cell file; dark-blue asterisk, protophloem sieve element cell file; light-blue asterisk, incipient metaphloem cell file; arrowheads indicate the two periclinal divisions. […] Left: VENUS fluorescence, yellow. Right: overlay of VENUS fluorescence with PI cell wall staining (cyan). Asterisk indicates protophloem sieve element cell file. (D) Quantification of protophloem strand presence/absence in root meristems of a Col-0 wild type or clerk mutant upon CLE26 treatment. Statistically significant differences when compared with mock control are indicated by letters ([…], P<0.001; n=18-30). […] (G) Distance between first detectable CVP2 expression and the quiescent center (QC) in Col-0 wild type and clerk mutants, expressed as cell number. […] (H) Distance between first detectable CVP2 expression and the quiescent center (QC) in Col-0 wild type and clerk mutants, expressed as absolute distance. […] (J) Quantification of cell file number in Col-0 wild type or clerk mutants, counted at the level where protoxylem has differentiated. […] Left: VENUS fluorescence, yellow; Right: overlay of VENUS fluorescence with PI cell wall staining (cyan). […]

[2] = test system: CLERK gene expression; test: CLERK::eGFP-GUS reporter expression in root meristem; assay type: in vivo, Arabidopsis thaliana; conditions: 1 μM CLE26, 5 min vs 60 min (Fig. S1E); compared with VISUAL assay
Excerpt: B overlay of PI fluorescence withGFP channel, in absence of GFPC overlay of GFP fluorescence withPI channel, in absence of PI […]
Figure S1 – Supplemental figure. (A) Phylogenetic tree of the class II LRR-RKs of Arabidopsis. (B) Col-0 wild type control root meristem, […]
5 days old, confocal microscopy. Left: GFP channel, yellow, note some background on the root edges; Right: Overlay of GFP channel with […]
PI cell wall staining (cyan). (C) CLERK-GFP fusion protein expression pattern, confocal microscopy, imaged without PI cell wall staining.
Left: GFP fluorescence, yellow; Right: Overlay of GFP fluorescence with PI channel, note increased background. (D) BAM3-CITRINE fusion […]
protein expression pattern in a clerk mutant root meristem, confocal microscopy. Left: CITRINE fluorescence, yellow; Right: Overlay of CITRINE […]
fluorescence with PI cell wall staining (cyan). Asterisks indicate protophloem sieve element cell files. (E) CLERK gene expression in response […]
to CLE26 treatment, as monitored by GFP fluorescence in the root meristem of a Col-0 seedling that carried a CLERK::eGFP-GUS transgene, […]
confocal microscopy. The same root is shown at the beginning and end of a time course. GFP fluorescence, yellow; […]

[3] = test system: Arabidopsis root growth; conditions: ref Hazak et al., 2017; cited from earlier work
Excerpt: The incapacity of clerk loss-of-function second site mutation to suppress the brx phenotype (unlike second site bam3 or clv2-crn loss of function) is also of interest with respect to the role of CLE peptide signaling in the spatiotemporal progression of protophloem sieve element differentiation. Resistance of clerk mutants against root-active CLE peptides as well as CLERK expression in early protophloem reiterate the key role of the protophloem in CLE sensing in the root ([Hazak et al., 2017]). Yet not all CLE peptides have an equally strong effect on root growth, which correlates with their i ...

[4] = test system: root meristem protophloem; conditions: BAM3 necessary; ref Depuydt et al., 2013; Hazak et al., 2017; Kang and Hardtke, 2016; cited from earlier work
Excerpt: The endogenous CLAVATA3/EMBRYO SURROUNDING REGION (CLE) peptides of plants are secreted as propeptides and processed to yield bioactive 12-14 amino acid long ligands ([Cock and McCormick, 2001]; [Ito et al., 2006]; [Kondo et al., 2006]). The Arabidopsis thaliana genome contains 32 CLE genes, which encode 27 distinct CLE peptides ([Goad et al., 2016]; [Ito et al., 2006]; [Strabala et al., 2006]). Exogenous application of chemically synthesized CLE peptides at nanomolar concentrations frequently suppresses Arabidopsis root growth in tissue culture ([Depuydt et al., 2013]; [Fiers et al., 2005]; [ ...

Sequence | Protophloem development in clerk mutants [1] | CLERK downregulation in the root meristem [2] | Relative strength as root-active CLE peptide [3] | Effect on protophloem sieve element differentiation [4]
RKVPRGPDPIHN [CLE26] | maintained protophloem development | an equally strong effect was not observed in the root meristem |  | 
RRVRRGSDPIHN [CLE45] |  |  | strongest root-active CLE peptide | suppression of protophloem sieve element differentiation
